Read-outs that look alike come from different tables or passages of the source.
Columns and labels:
[1] = target: IRAK3 (Homo sapiens, UniProt Q9Y616); conditions: 1 µM; binder
[2] = target: MAP3K3 (Homo sapiens, UniProt Q99759); conditions: 1 µM; binder
[3] = target: CSF1R-autoinhibited (Homo sapiens, UniProt P07333); conditions: 1 µM; binder
[4] = target: PRKG1 (Homo sapiens, UniProt Q13976); conditions: 1 µM; binder
[5] = target: SNRK (Homo sapiens, UniProt Q9NRH2); conditions: 1 µM; binder
[6] = target: RET(M918T) (Homo sapiens, UniProt P07949, M918T); conditions: 1 µM; binder
[7] = target: IRAK4 (Homo sapiens, UniProt Q9NWZ3); conditions: 1 µM; binder
[8] = target: JNK3 (Homo sapiens, UniProt P53779); conditions: 1 µM; binder
[9] = target: RPS6KA3 (Homo sapiens, UniProt P51812); conditions: binder
[10] = target: CDK9 (Homo sapiens, UniProt P50750); conditions: 1 µM; binder
[11] = target: PRKCE (Homo sapiens, UniProt Q02156); conditions: 1 µM; binder
[12] = target: MAP3K2 (Homo sapiens, UniProt Q9Y2U5); conditions: 1 µM; binder
[13] = target: PRKD3 (Homo sapiens, UniProt O94806); conditions: 1 µM; binder
[14] = target: ITK (Homo sapiens, UniProt Q08881); conditions: 1 µM; binder
[15] = target: JAK3 (Homo sapiens, UniProt P52333); conditions: JH1 domain catalytic; binder
[16] = target: DSTYK (Homo sapiens, UniProt Q6XUX3); conditions: 1 µM; binder
[17] = target: YSK4 (Homo sapiens, UniProt Q56UN5); conditions: 1 µM; binder
[18] = target: CDK4-cyclinD3 (Homo sapiens, UniProt P11802); conditions: 1 µM; binder
[19] = target: EPHA8 (Homo sapiens, UniProt P29322); conditions: 1 µM; binder
[20] = target: TNK2 (Homo sapiens, UniProt Q07912); conditions: 1 µM; binder
[21] = target: EGFR(L858R) (Homo sapiens, UniProt P00533, L858R); conditions: 1 µM; binder
[22] = target: CDK4-cyclinD1 (Homo sapiens, UniProt P11802); conditions: 1 µM; binder
[23] = target: ZAP70 (Homo sapiens, UniProt P43403); conditions: 1 µM; binder
[24] = target: PRP4 (Homo sapiens, UniProt Q13523); conditions: 1 µM; binder
[25] = target: CDKL2 (Homo sapiens, UniProt Q92772); conditions: 1 µM; binder
[26] = target: RET(V804M) (Homo sapiens, UniProt P07949, V804M); conditions: 1 µM; binder
[27] = target: CHEK1 (Homo sapiens, UniProt O14757); conditions: 1 µM; binder
[28] = target: ERK5 (Homo sapiens, UniProt Q13164); conditions: 1 µM; binder
[29] = target: ACVR1 (Homo sapiens, UniProt Q04771); conditions: 1 µM; binder
[30] = target: ARK5 (Homo sapiens, UniProt O60285); conditions: 1 µM; binder

RPS6KA3, sequence (P51812 whole entry): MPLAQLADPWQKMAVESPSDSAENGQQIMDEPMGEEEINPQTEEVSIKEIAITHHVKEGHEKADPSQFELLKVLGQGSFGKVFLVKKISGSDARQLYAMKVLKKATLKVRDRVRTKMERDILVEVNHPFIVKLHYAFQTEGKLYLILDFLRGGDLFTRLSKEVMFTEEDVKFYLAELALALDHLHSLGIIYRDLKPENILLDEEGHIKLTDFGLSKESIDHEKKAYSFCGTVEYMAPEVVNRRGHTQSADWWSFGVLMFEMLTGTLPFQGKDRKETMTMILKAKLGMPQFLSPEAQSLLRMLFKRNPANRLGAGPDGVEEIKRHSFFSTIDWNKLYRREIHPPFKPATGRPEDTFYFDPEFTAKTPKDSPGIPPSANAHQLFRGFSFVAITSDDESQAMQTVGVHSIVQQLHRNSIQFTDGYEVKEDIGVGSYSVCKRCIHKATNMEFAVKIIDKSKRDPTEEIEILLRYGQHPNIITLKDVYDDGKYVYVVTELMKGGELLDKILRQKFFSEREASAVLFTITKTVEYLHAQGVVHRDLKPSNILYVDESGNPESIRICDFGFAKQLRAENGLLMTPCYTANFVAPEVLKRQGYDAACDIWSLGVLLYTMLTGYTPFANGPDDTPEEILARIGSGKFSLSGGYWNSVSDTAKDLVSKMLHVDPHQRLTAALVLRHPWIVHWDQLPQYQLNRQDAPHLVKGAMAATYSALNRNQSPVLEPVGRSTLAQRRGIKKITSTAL
PRKD3, sequence (O94806 whole entry): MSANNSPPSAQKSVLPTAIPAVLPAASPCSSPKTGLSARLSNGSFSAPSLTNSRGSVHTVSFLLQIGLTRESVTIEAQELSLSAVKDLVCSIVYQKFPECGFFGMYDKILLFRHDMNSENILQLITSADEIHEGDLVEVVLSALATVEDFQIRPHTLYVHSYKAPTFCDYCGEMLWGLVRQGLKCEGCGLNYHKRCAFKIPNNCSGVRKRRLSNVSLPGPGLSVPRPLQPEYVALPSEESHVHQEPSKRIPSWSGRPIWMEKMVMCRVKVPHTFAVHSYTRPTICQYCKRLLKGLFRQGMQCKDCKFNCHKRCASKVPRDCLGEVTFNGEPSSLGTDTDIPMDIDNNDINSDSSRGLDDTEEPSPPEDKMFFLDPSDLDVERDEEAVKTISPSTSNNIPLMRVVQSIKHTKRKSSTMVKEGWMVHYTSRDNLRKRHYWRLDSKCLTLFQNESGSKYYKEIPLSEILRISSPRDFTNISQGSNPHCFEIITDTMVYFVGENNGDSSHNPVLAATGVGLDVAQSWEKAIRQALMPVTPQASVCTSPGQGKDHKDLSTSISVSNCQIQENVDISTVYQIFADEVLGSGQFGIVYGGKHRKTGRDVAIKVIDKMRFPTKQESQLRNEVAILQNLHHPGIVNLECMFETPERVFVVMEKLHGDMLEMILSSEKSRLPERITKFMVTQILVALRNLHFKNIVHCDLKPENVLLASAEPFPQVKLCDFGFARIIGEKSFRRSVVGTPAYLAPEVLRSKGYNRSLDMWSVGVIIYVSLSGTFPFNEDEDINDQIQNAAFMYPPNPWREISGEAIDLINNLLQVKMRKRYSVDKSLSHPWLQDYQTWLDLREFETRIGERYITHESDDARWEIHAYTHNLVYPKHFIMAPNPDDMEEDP
CSF1R-autoinhibited, sequence (P07333 whole entry): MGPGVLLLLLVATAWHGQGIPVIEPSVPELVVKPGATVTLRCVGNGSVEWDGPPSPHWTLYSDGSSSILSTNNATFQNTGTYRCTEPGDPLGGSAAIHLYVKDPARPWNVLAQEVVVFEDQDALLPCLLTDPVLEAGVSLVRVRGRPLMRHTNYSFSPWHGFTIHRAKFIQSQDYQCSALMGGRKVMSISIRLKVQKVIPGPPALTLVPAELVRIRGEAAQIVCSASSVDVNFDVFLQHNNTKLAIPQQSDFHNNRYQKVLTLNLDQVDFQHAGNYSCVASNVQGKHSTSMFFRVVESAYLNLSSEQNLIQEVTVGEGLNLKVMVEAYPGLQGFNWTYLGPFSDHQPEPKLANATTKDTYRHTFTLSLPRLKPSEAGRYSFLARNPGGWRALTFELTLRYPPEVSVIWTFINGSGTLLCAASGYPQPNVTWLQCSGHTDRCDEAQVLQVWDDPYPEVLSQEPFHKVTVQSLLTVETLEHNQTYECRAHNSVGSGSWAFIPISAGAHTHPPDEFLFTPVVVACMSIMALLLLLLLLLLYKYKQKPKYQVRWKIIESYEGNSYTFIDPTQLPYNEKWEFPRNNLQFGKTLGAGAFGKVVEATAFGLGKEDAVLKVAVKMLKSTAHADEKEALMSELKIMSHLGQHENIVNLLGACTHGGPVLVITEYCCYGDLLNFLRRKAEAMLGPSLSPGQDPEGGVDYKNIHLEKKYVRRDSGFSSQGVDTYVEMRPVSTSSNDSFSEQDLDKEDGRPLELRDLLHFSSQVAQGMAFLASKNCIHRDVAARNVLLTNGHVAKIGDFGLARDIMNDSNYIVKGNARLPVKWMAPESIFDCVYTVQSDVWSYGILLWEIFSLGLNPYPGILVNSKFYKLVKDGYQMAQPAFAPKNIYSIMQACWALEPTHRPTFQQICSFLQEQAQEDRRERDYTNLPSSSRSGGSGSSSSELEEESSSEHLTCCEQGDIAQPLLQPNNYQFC
CDK4-cyclinD1, sequence (P11802 whole entry): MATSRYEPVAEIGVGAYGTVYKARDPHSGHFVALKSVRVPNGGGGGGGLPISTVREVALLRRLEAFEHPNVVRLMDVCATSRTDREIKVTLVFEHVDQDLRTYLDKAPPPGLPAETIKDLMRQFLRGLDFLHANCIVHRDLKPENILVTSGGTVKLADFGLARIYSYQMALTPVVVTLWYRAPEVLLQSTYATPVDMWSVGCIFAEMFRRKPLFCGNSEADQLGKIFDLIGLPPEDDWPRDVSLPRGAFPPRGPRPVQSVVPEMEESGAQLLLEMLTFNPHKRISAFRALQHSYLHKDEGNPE
CDK4-cyclinD1, sequence (P24385 whole entry partner): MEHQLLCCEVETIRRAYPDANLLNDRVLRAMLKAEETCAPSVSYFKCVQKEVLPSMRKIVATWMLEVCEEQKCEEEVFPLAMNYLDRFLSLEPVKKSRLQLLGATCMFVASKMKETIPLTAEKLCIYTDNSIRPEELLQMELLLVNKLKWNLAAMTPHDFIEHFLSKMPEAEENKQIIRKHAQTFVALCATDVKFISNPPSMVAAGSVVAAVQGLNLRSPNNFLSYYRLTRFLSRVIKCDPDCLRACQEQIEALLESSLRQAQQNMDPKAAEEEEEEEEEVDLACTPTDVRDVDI
CDK4-cyclinD3, sequence (P11802 whole entry): as the sequence (P11802 whole entry) above
CDK4-cyclinD3, sequence (P30281 whole entry partner): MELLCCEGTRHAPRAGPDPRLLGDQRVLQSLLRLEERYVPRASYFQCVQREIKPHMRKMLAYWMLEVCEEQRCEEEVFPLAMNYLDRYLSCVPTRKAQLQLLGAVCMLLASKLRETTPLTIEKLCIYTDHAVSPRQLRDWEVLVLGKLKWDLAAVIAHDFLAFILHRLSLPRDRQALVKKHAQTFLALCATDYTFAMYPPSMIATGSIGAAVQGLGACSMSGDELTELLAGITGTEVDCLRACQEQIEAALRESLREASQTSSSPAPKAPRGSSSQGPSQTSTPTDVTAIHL
ITK, sequence (Q08881 whole entry, the tested form may be a part): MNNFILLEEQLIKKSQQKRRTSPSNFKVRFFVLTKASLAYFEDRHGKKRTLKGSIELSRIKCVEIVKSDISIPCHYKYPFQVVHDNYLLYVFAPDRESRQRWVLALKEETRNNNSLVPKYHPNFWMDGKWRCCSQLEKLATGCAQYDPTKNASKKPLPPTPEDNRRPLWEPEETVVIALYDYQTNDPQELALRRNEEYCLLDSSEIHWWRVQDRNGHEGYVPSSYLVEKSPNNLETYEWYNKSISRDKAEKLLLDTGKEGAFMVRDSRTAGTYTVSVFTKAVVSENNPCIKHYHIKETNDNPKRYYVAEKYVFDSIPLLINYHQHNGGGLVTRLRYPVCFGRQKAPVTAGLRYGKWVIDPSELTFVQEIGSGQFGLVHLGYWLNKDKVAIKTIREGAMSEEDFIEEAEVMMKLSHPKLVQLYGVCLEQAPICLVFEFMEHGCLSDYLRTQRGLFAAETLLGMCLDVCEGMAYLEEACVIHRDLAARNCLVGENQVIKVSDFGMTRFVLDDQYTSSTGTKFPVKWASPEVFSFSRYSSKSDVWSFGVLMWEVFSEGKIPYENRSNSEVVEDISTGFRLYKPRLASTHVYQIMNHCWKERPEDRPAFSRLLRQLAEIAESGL
JNK3, sequence (P53779 whole entry): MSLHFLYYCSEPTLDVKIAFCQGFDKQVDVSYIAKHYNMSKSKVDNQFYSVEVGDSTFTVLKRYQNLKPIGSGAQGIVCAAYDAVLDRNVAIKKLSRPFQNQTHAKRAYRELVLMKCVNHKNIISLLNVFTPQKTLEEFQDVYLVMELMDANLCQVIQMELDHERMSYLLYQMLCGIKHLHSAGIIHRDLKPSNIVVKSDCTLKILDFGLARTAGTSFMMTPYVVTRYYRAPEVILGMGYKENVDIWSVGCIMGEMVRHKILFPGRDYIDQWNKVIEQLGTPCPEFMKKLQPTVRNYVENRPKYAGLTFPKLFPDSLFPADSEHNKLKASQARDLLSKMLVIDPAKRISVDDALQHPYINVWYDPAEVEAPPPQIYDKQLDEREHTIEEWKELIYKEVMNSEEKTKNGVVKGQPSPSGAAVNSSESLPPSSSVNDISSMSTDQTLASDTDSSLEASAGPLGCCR
CDK9, sequence (P50750 whole entry): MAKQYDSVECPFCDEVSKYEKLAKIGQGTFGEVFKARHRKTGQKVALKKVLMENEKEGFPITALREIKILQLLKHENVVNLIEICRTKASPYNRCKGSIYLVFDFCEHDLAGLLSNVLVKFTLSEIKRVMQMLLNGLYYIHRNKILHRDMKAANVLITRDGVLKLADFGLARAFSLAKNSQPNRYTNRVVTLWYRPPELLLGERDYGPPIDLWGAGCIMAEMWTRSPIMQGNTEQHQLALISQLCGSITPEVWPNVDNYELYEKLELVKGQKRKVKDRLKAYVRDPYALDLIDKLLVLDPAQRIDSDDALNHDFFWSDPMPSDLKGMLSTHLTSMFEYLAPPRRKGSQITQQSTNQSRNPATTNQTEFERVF

CNc1ncc2cc(-c3ccc(-c4cccc(C)n4)cc3Cl)c(=O)n(C[C@H]3OC[C@H](N)CO3)c2n1 [compound 6, G-5555]
Percent Control [1]: 92%
Percent Control [2]: 23%
Percent Control [3]: 84%
Percent Control [4]: 100%
Percent Control [5]: 89%
Percent Control [6]: 100%
Percent Control [7]: 95%
Percent Control [8]: 87%
Percent Control ([9]; Kin.Dom.1 N-terminal): 65%
Percent Control ([9]; Kin.Dom.2 C-terminal, 1 µM): 63%
Percent Control [10]: 100%
Percent Control [11]: 71%
Percent Control [12]: 67%
Percent Control [13]: 20%
Percent Control [14]: 100%
Percent Control [15]: 90%
Percent Control [16]: 91%
Percent Control [17]: 19%
Percent Control [18]: 100%
Percent Control [19]: 72%
Percent Control [20]: 86%
Percent Control [21]: 85%
Percent Control [22]: 99%
Percent Control [23]: 100%
Percent Control [24]: 95%
Percent Control [25]: 58%
Percent Control [26]: 100%
Percent Control [27]: 100%
Percent Control [28]: 52%
Percent Control [29]: 100%
Percent Control [30]: 24%
